Laboratory results taken from patent publication US20250354986A1, “AFFINITY ENCODED OSCILLATOR ARRAYS, METHODS, AND RELATED ASPECTS FOR MEASURING MOLECULAR BINDING KINETICS” (ARIZONA BOARD OF REGENTS ON BEHALF OF ARIZONA STATE …, priority 2024, published 2025).
Structures can show the parent of a compound that is named as a salt.

What was measured:
[1] = system: K082 virions with no GPCR displayed on the envelope; assay: Control nano-oscillators: K082 virion with no GPCR, or AuNP only; conditions: K082 virion with no GPCR displayed, or AuNP only without virion
Experimental: By fitting the binding curves with the first order kinetics model, the associate rate constant, dissociate rate constant and equilibrium constants for each nano-oscillator were obtained. […] To validate the individual nano-oscillator results, interactions of the same ligand with high density ensemble virion-oscillators were measured (FIG. 15). The binding response curves are the averaged oscillation amplitude of the entire ensemble area as a function of time. […] This phenomenon is likely due to the heterogeneity in GPCR expression level among individual virions, which will affect maximum binding signal, but not the binding kinetics.

[2] = stated without a test; cited from earlier work
[3] = system: decoding sequence 1; conditions: for averaged equilibrium affinity constant (KA): first barcode group hybridized with its DNA decoding sequence, 37 individual nano-oscillators per probe; for Median of amplitude change for association: group 1 barcode nano-oscillators, hybridization signal
Experimental: (§1) To enable affinity-based barcoding, it is important to ensure nanoarrays are addressable by distinct affinities induced by different nucleotides mismatches. […] Perfectly matched, two and three-nucleotide mismatched complementary single DNA strains were used as barcode sequences on the nanocomplexes. Attributed to the charge-sensitive detection capability of nano-oscillators, hybridization of the charge-rich decoding DNA onto the nano-oscillators were recorded in real-time, enabling the calculation of hybridization affinities.
(§2) In FIG. 8, for each kind of barcode sequence, 37 individual nano-oscillators were measured for statistical study.
(§3) The second step of the measurement is decoding, which identifies the type of GPCRs on individual nano-oscillators, and was achieved by sequentially measuring the binding affinity of all decoding sequences. Each round of decoding flowed 50 nM of a specific readout sequence to hybridize with the barcodes on the nano-oscillator for 550 seconds, followed by buffer washing to dissociate the readout sequence for a duration of 250 seconds. Conducting the ligand screening before decoding can prevent potential issue of saturated oscillation amplitude change that may arise from excessively high negatively charged nano-oscillators after hybridization with the decoding sequence. Throughout all experiments, the injected sample was driven by a syringe pump and flowed onto the upper right portion of the field-of-view to minimize mass transport issues.
(§4) After recording the images, a region of interest (ROI) was selected on each particle (covering the parabolic tail), and the mean intensity within the ROI was calculated as the plasmonic intensity. An adjacent region with the same size was selected as the reference region, and its intensity was used to remove common noise from the ROI. The oscillation amplitude was obtained in every second using fast Fourier transform (FFT). The FFT intensity at the oscillation frequency was then plotted against time to illustrate both the binding trend and decoding process. Response curve fitting and calculation of binding kinetic constants were conducted using Scrubber (BioLogic Software). All data were visualized using Origin and MATLAB.

[4] = system: decoding sequence 2; conditions: for Median of amplitude change for association: group 2 barcode nano-oscillators, hybridization signal; for averaged equilibrium affinity constant (KA): second barcode group hybridized with its DNA decoding sequence, 37 individual nano-oscillators per probe
Experimental: as §1, §2, §3, §4

Compound	averaged equilibrium affinity constant (KA) [3]	Median of amplitude change for association [3]	Median of amplitude change for association [4]	averaged equilibrium affinity constant (KA) [4]	other results
CC(C)NCC(O)COc1cccc2ccccc12 (centres unmarked) [Propranolol, Propranolol hydrochloride]	–	–	–	–	oscillation amplitude response of control nano-oscillators to ligand [1]: not obvious responding
Tocrifluor	–	–	–	–	charge at pH 7.4 [2]: neutral
biotin-(CH2)6-5′-ACAATACCTCGGCCCTTCTC-3′ [barcode 1 (group 1)]	(8.1±1.1)×10^8 M^−1	9.7 nm	–	–	–
biotin-(CH2)6-5′-ACACTACCTCAGCCCTCCTC-3′ [barcode 3 (group 1)]	(5.9±0.82)×10^6 M^−1	7.5 nm	–	–	–
biotin-(CH2)6-5′-ACACTACCTCAGCCCTCCTC-3′ [barcode 3 (group 2)]	–	–	7.2 nm	(2.0±0.78)×10^6 M^−1	–
biotin-(CH2)6-5′-ACACTACCTCGGCCCTCCTC-3′ [barcode 2 (group 1)]	(5.3±0.74)×10^7 M^−1	9.6 nm	–	–	–
biotin-(CH2)6-5′-GAGTTACTACAGACCATCGT-3′ [barcode 2 (group 2)]	–	–	10.9 nm	(6.5±1.1)×10^7 M^−1	–
biotin-(CH2)6-5′-GAGTTGCTACAGACCTTCGT-3′ [barcode 1 (group 2)]	–	–	11.6 nm	(7.1±0.98)×10^8 M^−1	–
